{"source": "paper PMC5218480", "about": "(PLoS ONE, 2017)", "test_system": "MV-4-11 cells", "assay": "Gene expression microarray analysis (Affymetrix PrimeView) and GSEA", "assay_type": "cell-based, human", "parameters": "RFU PODN (11730768_x_at) / Fold change /veh PODN (11730768_x_at) / RFU LINC00158 (11744669_a_at) / Fold change /veh LINC00158 (11744669_a_at) / RFU DUSP10 (11751237_a_at) / Fold change /veh DUSP10 (11751237_a_at) / RFU ID3 (11757404_x_at) / Fold change /veh ID3 (11757404_x_at) / RFU PLEKHG5 (11737974_s_at) / Fold change /veh PLEKHG5 (11737974_s_at) / RFU LRRC4B (11730491_at) / Fold change /veh LRRC4B (11730491_at) / RFU GIMAP4 (11747438_a_at) / Fold change /veh GIMAP4 (11747438_a_at) / RFU KRT8 (11758183_x_at) / Fold change /veh KRT8 (11758183_x_at) / RFU CNN1 (11734310_a_at) / Fold change /veh CNN1 (11734310_a_at) / RFU VPS37D (11726825_at) / Fold change /veh VPS37D (11726825_at) / RFU C10orf10 (11716522_x_at) / Fold change /veh C10orf10 (11716522_x_at) / RFU KIR2DL2 /// KIR2DL4 /// KIR2DL5A /// KIR2DL5B /// KIR2DS1 /// KIR2DS2 /// KIR2DS3 /// KIR2DS4 /// KIR3DL3 /// KIR3DL3 /// KIR3DS1 (11738374_at) / Fold change /veh KIR2DL2 /// KIR2DL4 /// KIR2DL5A /// KIR2DL5B /// KIR2DS1 /// KIR2DS2 /// KIR2DS3 /// KIR2DS4 /// KIR3DL3 /// KIR3DL3 /// KIR3DS1 (11738374_at) / RFU C1QL1 (11718748_at) / Fold change /veh C1QL1 (11718748_at) / RFU TMPRSS4 (11747572_a_at) / Fold change /veh TMPRSS4 (11747572_a_at) / RFU HAMP (11756126_x_at) / Fold change /veh HAMP (11756126_x_at) / RFU RNFT2 (11725882_a_at) / Fold change /veh RNFT2 (11725882_a_at) / RFU NR4A2 (11747474_a_at) / Fold change /veh NR4A2 (11747474_a_at) / RFU ABCC12 (11746883_a_at) / Fold change /veh ABCC12 (11746883_a_at) / RFU TMEM136 (11760407_x_at) / Fold change /veh TMEM136 (11760407_x_at) / RFU CLDN22 /// WWC2 (11732394_at) / Fold change /veh CLDN22 /// WWC2 (11732394_at) / RFU HLA-DPB1 (11760878_x_at) / Fold change /veh HLA-DPB1 (11760878_x_at) / RFU SPINT1 (11716480_a_at) / Fold change /veh SPINT1 (11716480_a_at) / RFU GAP43 (11754022_s_at) / Fold change /veh GAP43 (11754022_s_at) / RFU A4GNT (11735810_at) / Fold change /veh A4GNT (11735810_at) / RFU PRB3 (11715151_x_at) / Fold change /veh PRB3 (11715151_x_at) / RFU TUBB4B (11761932_at) / Fold change /veh TUBB4B (11761932_at) / RFU CAPN14 (11732068_a_at) / Fold change /veh CAPN14 (11732068_a_at) / RFU TMCC2 (11721928_a_at) / Fold change /veh TMCC2 (11721928_a_at) / RFU IRGQ (11745062_a_at) / Fold change /veh IRGQ (11745062_a_at) / RFU FAM174B (11720279_a_at) / Fold change /veh FAM174B (11720279_a_at) / RFU TMPRSS4 (11748680_a_at) / Fold change /veh TMPRSS4 (11748680_a_at) / RFU FAM212B (11763350_a_at) / Fold change /veh FAM212B (11763350_a_at) / RFU PLEKHG5 (11743358_a_at) / Fold change /veh PLEKHG5 (11743358_a_at) / RFU ZSCAN30 (11745921_a_at) / Fold change /veh ZSCAN30 (11745921_a_at) / RFU CMKLR1 (11741424_a_at) / Fold change /veh CMKLR1 (11741424_a_at) / RFU LOC101060620 /// MAPK8IP1 (11723275_at) / Fold change /veh LOC101060620 /// MAPK8IP1 (11723275_at) / RFU SPTSSB (11747773_x_at) / Fold change /veh SPTSSB (11747773_x_at) / RFU PRSS12 (11739890_at) / Fold change /veh PRSS12 (11739890_at) / RFU BIN1 (11741810_x_at) / Fold change /veh BIN1 (11741810_x_at) / RFU WNT11 (11732464_a_at) / Fold change /veh WNT11 (11732464_a_at) / RFU C10orf10 (11716521_a_at) / Fold change /veh C10orf10 (11716521_a_at) / RFU C5orf56 (11738089_at) / Fold change /veh C5orf56 (11738089_at) / RFU CYB561 (11721691_x_at) / Fold change /veh CYB561 (11721691_x_at) / RFU ANKRD19P (11752326_a_at) / Fold change /veh ANKRD19P (11752326_a_at) / RFU OR2T12 /// OR2T33 /// OR2T8 (11738714_s_at) / Fold change /veh OR2T12 /// OR2T33 /// OR2T8 (11738714_s_at) / RFU VCAN (11748164_a_at) / Fold change /veh VCAN (11748164_a_at) / RFU JSRP1 (11732532_at) / Fold change /veh JSRP1 (11732532_at) / RFU KRTAP10-11 (11738290_x_at) / Fold change /veh KRTAP10-11 (11738290_x_at) / RFU MYO3A (11730013_a_at) / Fold change /veh MYO3A (11730013_a_at) / RFU EBF3 (11725865_a_at) / Fold change /veh EBF3 (11725865_a_at) / RFU CAMK2N1 (11719241_x_at) / Fold change /veh CAMK2N1 (11719241_x_at) / RFU C5orf56 (11738088_a_at) / Fold change /veh C5orf56 (11738088_a_at) / RFU OLFML3 (11715873_a_at) / Fold change /veh OLFML3 (11715873_a_at) / RFU LOC100653217 /// NTM (11731650_a_at) / Fold change /veh LOC100653217 /// NTM (11731650_a_at) / RFU MAPK11 (11762145_a_at) / Fold change /veh MAPK11 (11762145_a_at) / RFU FIZ1 (11724087_x_at) / Fold change /veh FIZ1 (11724087_x_at) / RFU OASL (11726364_x_at) / Fold change /veh OASL (11726364_x_at) / RFU SOX15 (11748057_x_at) / Fold change /veh SOX15 (11748057_x_at) / RFU CD79A (11719716_a_at) / Fold change /veh CD79A (11719716_a_at) / RFU HIST1H1D (11736915_at) / Fold change /veh HIST1H1D (11736915_at) / RFU CASKIN2 (11723855_a_at) / Fold change /veh CASKIN2 (11723855_a_at) / RFU LOC730098 (11760151_x_at) / Fold change /veh LOC730098 (11760151_x_at) / RFU OR4N2 (11742367_at) / Fold change /veh OR4N2 (11742367_at) / RFU PRRT2 (11749266_a_at) / Fold change /veh PRRT2 (11749266_a_at) / RFU SNX32 (11753110_a_at) / Fold change /veh SNX32 (11753110_a_at) / RFU CDHR5 (11726645_a_at) / Fold change /veh CDHR5 (11726645_a_at) / RFU RCAN1 (11760418_a_at) / Fold change /veh RCAN1 (11760418_a_at) / RFU FAM167A (11723789_a_at) / Fold change /veh FAM167A (11723789_a_at) / RFU FAM26E (11764081_at) / Fold change /veh FAM26E (11764081_at) / RFU ISYNA1 (11749810_s_at) / Fold change /veh ISYNA1 (11749810_s_at) / RFU ACY1 (11761880_at) / Fold change /veh ACY1 (11761880_at) / RFU 11764098_at / Fold change /veh 11764098_at / RFU SAMD14 (11745864_x_at) / Fold change /veh SAMD14 (11745864_x_at) / RFU NPB (11741838_a_at) / Fold change /veh NPB (11741838_a_at) / RFU TMPRSS6 (11731388_a_at) / Fold change /veh TMPRSS6 (11731388_a_at) / RFU KRTAP10-2 (11738614_at) / Fold change /veh KRTAP10-2 (11738614_at) / RFU ARHGAP8 /// PRR5-ARHGAP8 (11727945_x_at) / Fold change /veh ARHGAP8 /// PRR5-ARHGAP8 (11727945_x_at) / RFU KRTAP5-7 /// NADSYN1 (11734609_at) / Fold change /veh KRTAP5-7 /// NADSYN1 (11734609_at) / RFU RASL12 (11751679_a_at) / Fold change /veh RASL12 (11751679_a_at) / RFU CDKN2B (11736163_a_at) / Fold change /veh CDKN2B (11736163_a_at) / RFU PRF1 (11729649_at) / Fold change /veh PRF1 (11729649_at) / RFU, ZNF638 /// ZNF638-IT1 / Fold change vs veh, ZNF638 /// ZNF638-IT1 / RFU, PANK3 / Fold change vs veh, PANK3 / RFU, SH3YL1 / Fold change vs veh, SH3YL1 / RFU, ZEB2 / Fold change vs veh, ZEB2 / RFU, NRIP1 / Fold change vs veh, NRIP1 / RFU, PTTG1IP / Fold change vs veh, PTTG1IP / RFU, CAPN2 / Fold change vs veh, CAPN2 / RFU, MED14 / Fold change vs veh, MED14 / RFU, SNORA58 / Fold change vs veh, SNORA58 / RFU, C1orf63 / Fold change vs veh, C1orf63 / RFU, LRRFIP1 / Fold change vs veh, LRRFIP1 / RFU, NDUFAF7 / Fold change vs veh, NDUFAF7 / RFU, SLC12A2 / Fold change vs veh, SLC12A2 / RFU, IBTK / Fold change vs veh, IBTK / RFU, ESF1 / Fold change vs veh, ESF1 / Fold change vs veh, TMEM50B / RFU, TAOK1 / Fold change vs veh, TAOK1 / RFU, ACBD3 / Fold change vs veh, ACBD3 / RFU, TMA16 / Fold change vs veh, TMA16 / RFU, RWDD3 / Fold change vs veh, RWDD3 / RFU, BCAT1 / Fold change vs veh, BCAT1 / RFU, EDEM3 / Fold change vs veh, EDEM3 / RFU, TMEM33 / Fold change vs veh, TMEM33 / RFU, WDR75 / Fold change vs veh, WDR75 / RFU, AHCTF1 / Fold change vs veh, AHCTF1 / RFU, TFRC / Fold change vs veh, TFRC / RFU, ZDHHC17 / Fold change vs veh, ZDHHC17 / RFU, NOM1 / Fold change vs veh, NOM1 / RFU, ARL8B / Fold change vs veh, ARL8B / RFU, ZBTB11 / Fold change vs veh, ZBTB11 / RFU, TAMM41 / Fold change vs veh, TAMM41 / RFU, KIAA1704 /// LOC100996395 / Fold change vs veh, KIAA1704 /// LOC100996395 / RFU, ING1 / Fold change vs veh, ING1 / RFU, TRMT61B / Fold change vs veh, TRMT61B / RFU, FUBP3 / Fold change vs veh, FUBP3 / RFU, TP53 / Fold change vs veh, TP53 / RFU, TNKS2 / Fold change vs veh, TNKS2 / RFU, ZFP14 / Fold change vs veh, ZFP14 / RFU, ACTR2 / Fold change vs veh, ACTR2 / RFU, PPP3R1 / Fold change vs veh, PPP3R1 / RFU, PIK3R1 / Fold change vs veh, PIK3R1 / RFU, HNRNPA1 / Fold change vs veh, HNRNPA1 / RFU, RNF170 / Fold change vs veh, RNF170 / RFU, ZNF28 / Fold change vs veh, ZNF28 / RFU, RNGTT / Fold change vs veh, RNGTT / RFU, OGT / Fold change vs veh, OGT / RFU, BRD1 / Fold change vs veh, BRD1 / RFU, MARS / Fold change vs veh, MARS / RFU, ZNF655 / Fold change vs veh, ZNF655 / RFU, FAHD1 / Fold change vs veh, FAHD1 / RFU, BDP1 / Fold change vs veh, BDP1 / RFU, LRRCC1 / Fold change vs veh, LRRCC1 / RFU, ARID1A / Fold change vs veh, ARID1A / RFU, ZNF146 / Fold change vs veh, ZNF146 / RFU, ZNF330 / Fold change vs veh, ZNF330 / RFU, GPN3 / Fold change vs veh, GPN3 / RFU, C9orf123 / Fold change vs veh, C9orf123 / RFU, N4BP2L2 / Fold change vs veh, N4BP2L2 / RFU, ARFIP1 / Fold change vs veh, ARFIP1 / RFU, FAM179B / Fold change vs veh, FAM179B / RFU, BCL10 / Fold change vs veh, BCL10 / RFU, UHRF1BP1L / Fold change vs veh, UHRF1BP1L / RFU, BET1 / Fold change vs veh, BET1 / RFU, CNOT2 / Fold change vs veh, CNOT2 / RFU, ZNF268 / Fold change vs veh, ZNF268 / Fold change vs veh, ZNF507 / RFU, DGCR2 / Fold change vs veh, DGCR2 / RFU, WDSUB1 / Fold change vs veh, WDSUB1 / Fold change vs veh, HSP90B1 /// MIR3652 / RFU, ADSS / Fold change vs veh, ADSS / RFU, GK / Fold change vs veh, GK / RFU, ZNF148 / Fold change vs veh, ZNF148 / RFU, TAF9 / Fold change vs veh, TAF9 / RFU, SLC1A5 / Fold change vs veh, SLC1A5 / RFU, SLMO2 / Fold change vs veh, SLMO2 / RFU, ABCC4 / Fold change vs veh, ABCC4 / RFU, LOC101060439 /// RAP1B / Fold change vs veh, LOC101060439 /// RAP1B / RFU, RFX7 / Fold change vs veh, RFX7 / RFU, GTPBP10 / Fold change vs veh, GTPBP10 / RFU, CNEP1R1 / Fold change vs veh, CNEP1R1 / RFU, BIVM-ERCC5 /// ERCC5 / Fold change vs veh, BIVM-ERCC5 /// ERCC5 / RFU, ILF3 / Fold change vs veh, ILF3 / RFU 11762660_at / Fold change /veh 11762660_at / RFU VCAN (11757783_s_at) / Fold change /veh VCAN (11757783_s_at) / RFU DDX43 (11728927_at) / Fold change /veh DDX43 (11728927_at) / RFU KRT8 (11758188_x_at) / Fold change /veh KRT8 (11758188_x_at) / RFU NKD1 (11759106_at) / Fold change /veh NKD1 (11759106_at) / RFU SRD5A1 (11742802_a_at) / Fold change /veh SRD5A1 (11742802_a_at) / RFU TPSAB1 /// TPSB2 (11721975_s_at) / Fold change /veh TPSAB1 /// TPSB2 (11721975_s_at) / RFU GSTM3 (11746129_a_at) / Fold change /veh GSTM3 (11746129_a_at) / RFU IL23R (11737362_x_at) / Fold change /veh IL23R (11737362_x_at) / RFU TMEM51 (11727254_a_at) / Fold change /veh TMEM51 (11727254_a_at) / RFU PIWIL2 (11732686_x_at) / Fold change /veh PIWIL2 (11732686_x_at) / RFU ORM1 (11744905_x_at) / Fold change /veh ORM1 (11744905_x_at) / RFU CCDC152 (11743942_at) / Fold change /veh CCDC152 (11743942_at) / RFU ECM1 (11717891_a_at) / Fold change /veh ECM1 (11717891_a_at) / RFU IL23R (11748794_a_at) / Fold change /veh IL23R (11748794_a_at) / RFU TNFAIP8L3 (11732012_x_at) / Fold change /veh TNFAIP8L3 (11732012_x_at) / RFU MBOAT4 (11741988_at) / Fold change /veh MBOAT4 (11741988_at) / RFU 11764193_at / Fold change /veh 11764193_at / RFU TMEM53 (11763286_at) / Fold change /veh TMEM53 (11763286_at) / RFU MAGEB2 (11727129_at) / Fold change /veh MAGEB2 (11727129_at) / RFU TMEM200A (11744735_a_at) / Fold change /veh TMEM200A (11744735_a_at) / RFU CCDC152 (11751479_a_at) / Fold change /veh CCDC152 (11751479_a_at) / RFU FAM211A (11726209_a_at) / Fold change /veh FAM211A (11726209_a_at) / RFU RGS16 (11746705_a_at) / Fold change /veh RGS16 (11746705_a_at) / RFU VCAN (11755009_s_at) / Fold change /veh VCAN (11755009_s_at) / RFU RHOB (11743442_s_at) / Fold change /veh RHOB (11743442_s_at) / RFU RGS16 (11720943_a_at) / Fold change /veh RGS16 (11720943_a_at) / RFU RGS16 (11720944_at) / Fold change /veh RGS16 (11720944_at) / RFU, VPS4B / Fold change vs veh, VPS4B / RFU, CREB1 / Fold change vs veh, CREB1 / RFU, DNAJC13 / Fold change vs veh, DNAJC13 / RFU, GNAQ / Fold change vs veh, GNAQ / RFU, CDK5R1 / Fold change vs veh, CDK5R1 / RFU, ZRANB3 / Fold change vs veh, ZRANB3 / RFU, CUL4A / Fold change vs veh, CUL4A / RFU, CCNY / Fold change vs veh, CCNY / RFU, UFL1 / Fold change vs veh, UFL1 / RFU, COG3 / Fold change vs veh, COG3 / RFU, DIAPH2 / Fold change vs veh, DIAPH2 / RFU, SKA2 / Fold change vs veh, SKA2 / RFU, AFF3 / Fold change vs veh, AFF3 / RFU, LMF1 / Fold change vs veh, LMF1 / RFU, IPO11 / Fold change vs veh, IPO11 / RFU, DFFB / Fold change vs veh, DFFB / RFU, FOXP1 / Fold change vs veh, FOXP1 / RFU, CARD8 / Fold change vs veh, CARD8 / RFU, STRN3 / Fold change vs veh, STRN3 / RFU, ADK / Fold change vs veh, ADK / RFU, RASSF2 / Fold change vs veh, RASSF2 / RFU, WIPF1 / Fold change vs veh, WIPF1 / RFU, LARP1B / Fold change vs veh, LARP1B / RFU, RASA1 / Fold change vs veh, RASA1 / RFU, RB1 / Fold change vs veh, RB1 / RFU, PPFIA1 / Fold change vs veh, PPFIA1 / RFU, MAT2A / Fold change vs veh, MAT2A / RFU, CCT5 / Fold change vs veh, CCT5 / RFU, WDR92 / Fold change vs veh, WDR92 / RFU, CUX1 / Fold change vs veh, CUX1 / RFU, TTC7A / Fold change vs veh, TTC7A / RFU, TMEM135 / Fold change vs veh, TMEM135 / RFU, DEPTOR / Fold change vs veh, DEPTOR / RFU, CPM / Fold change vs veh, CPM / RFU, DNAJB6 / Fold change vs veh, DNAJB6 / RFU, CACNA2D3 / Fold change vs veh, CACNA2D3 / RFU, DTX4 / Fold change vs veh, DTX4 / RFU, TFCP2 / Fold change vs veh, TFCP2 / RFU, GMCL1 /// GMCL1P1 / Fold change vs veh, GMCL1 /// GMCL1P1 / RFU, AEBP2 / Fold change vs veh, AEBP2 / RFU, SNHG1 /// SNORD22 /// SNORD25 /// SNORD26 /// SNORD27 /// SNORD28 /// SNORD29 /// SNORD31 / Fold change vs veh, SNHG1 /// SNORD22 /// SNORD25 /// SNORD26 /// SNORD27 /// SNORD28 /// SNORD29 /// SNORD31 / Fold change (Aza/veh), C12orf56 (ProbeSet 11735607_a_at) / Fold change (ACY-1035/veh), C12orf56 (ProbeSet 11735607_a_at) / Fold change (Aza/veh), FGFR1OP (ProbeSet 11751329_s_at) / Fold change (ACY-1035/veh), FGFR1OP (ProbeSet 11751329_s_at) / Fold change (Aza/veh), VPS36 (ProbeSet 11739960_a_at) / Fold change (ACY-1035/veh), VPS36 (ProbeSet 11739960_a_at) / RFU SYPL1 (11715823_x_at) / Fold change /veh SYPL1 (11715823_x_at) / RFU IGFBP7 (11715501_s_at) / Fold change /veh IGFBP7 (11715501_s_at) / RFU REEP3 (11722064_at) / Fold change /veh REEP3 (11722064_at) / RFU IGLL1 (11728026_x_at) / Fold change /veh IGLL1 (11728026_x_at): dose or concentration left out as unconfirmed", "conditions": "ProbeSet 11745789_a_at; LIST D", "data": [{"compound": "Nc1ccc(-c2cccs2)cc1NC(=O)c1ccc2c(c1)cc(C1CC1)n2CCN1CCOCC1", "note": "[ACY-1035]", "values": [{"measurement": "Fold change vs veh, TMEM135", "result": 0.97}]}]}
